In the NIST ThermoML archive (doi:10.1021/je1009619):
± gives the expanded uncertainty stated by the source.

Test: xn = mol fraction of the nth substance listed
Details: Liquid, Vibrating tube method

CC1=CC[C@H]2C[C@@H]1C2(C)C [(S)-2-pinene] + C=C(C)[C@H]1CC=C(C)CC1
mass density [kg/m3]
Details | x2 = 0 | x2 = 0.0976 | x2 = 0.1991 | x2 = 0.2983 | x2 = 0.3955 | x2 = 0.5036 | x2 = 0.5967 | x2 = 0.7024 | x2 = 0.8084 | x2 = 0.906
283.15 K, 20000 kPa | 880 ± 0.9 | 878.3 ± 0.9 | 876.4 ± 0.9 | 874.6 ± 0.9 | 872.9 ± 0.9 | 870.9 ± 0.9 | 869.2 ± 0.9 | 867.4 ± 0.9 | 865.3 ± 0.9 | 863.5 ± 0.9
283.15 K, 25000 kPa | 883.2 ± 0.9 | 881.4 ± 0.9 | 879.3 ± 0.9 | 877.6 ± 0.9 | 875.8 ± 0.9 | 873.8 ± 0.9 | 872.1 ± 0.9 | 870.3 ± 0.9 | 868.3 ± 0.9 | 866.6 ± 0.9
283.15 K, 30000 kPa | 886.3 ± 0.9 | 884.3 ± 0.9 | 882.4 ± 0.9 | 880.5 ± 0.9 | 878.7 ± 0.9 | 876.7 ± 0.9 | 875.1 ± 0.9 | 873.1 ± 0.9 | 871.3 ± 0.9 | 869.2 ± 0.9
283.15 K, 35000 kPa | 889.4 ± 0.9 | 887.5 ± 0.9 | 885.4 ± 0.9 | 883.4 ± 0.9 | 881.7 ± 0.9 | 879.7 ± 0.9 | 878 ± 0.9 | 876.1 ± 0.9 | 873.9 ± 0.9 | 871.9 ± 0.9
283.15 K, 40000 kPa | 892.5 ± 1 | 890.4 ± 1 | 888.5 ± 1 | 886.5 ± 1 | 884.7 ± 1 | 882.7 ± 1 | 880.9 ± 1 | 878.9 ± 1 | 876.5 ± 1 | 874.4 ± 1
298.15 K, 20000 kPa | 868.8 ± 0.9 | 866.9 ± 0.9 | 865.4 ± 0.9 | 863.5 ± 0.9 | 861.7 ± 0.9 | 860 ± 0.9 | 858.4 ± 0.9 | 856.9 ± 0.9 | 855.1 ± 0.9 | 853 ± 0.9
298.15 K, 25000 kPa | 872.1 ± 0.9 | 870.3 ± 0.9 | 868.6 ± 0.9 | 866.8 ± 0.9 | 865 ± 0.9 | 863.2 ± 0.9 | 861.6 ± 0.9 | 859.8 ± 0.9 | 858 ± 0.9 | 856.1 ± 0.9
298.15 K, 30000 kPa | 875.3 ± 0.9 | 873.5 ± 0.9 | 871.7 ± 0.9 | 869.8 ± 0.9 | 868.1 ± 0.9 | 866.3 ± 0.9 | 864.7 ± 0.9 | 862.8 ± 0.9 | 861 ± 0.9 | 859.1 ± 0.9
298.15 K, 35000 kPa | 878.6 ± 0.9 | 876.7 ± 0.9 | 875 ± 0.9 | 873.1 ± 0.9 | 871.3 ± 0.9 | 869.5 ± 0.9 | 867.9 ± 0.9 | 865.9 ± 0.9 | 864.1 ± 0.9 | 862.2 ± 0.9
298.15 K, 40000 kPa | 881.9 ± 1 | 880 ± 1 | 878.1 ± 1 | 876.3 ± 1 | 874.5 ± 1 | 872.6 ± 1 | 871 ± 1 | 869 ± 1 | 867.1 ± 1 | 865.2 ± 1
313.15 K, 20000 kPa | 858 ± 0.9 | 856.2 ± 0.9 | 854.4 ± 0.9 | 852.6 ± 0.9 | 851 ± 0.9 | 849.2 ± 0.9 | 847.6 ± 0.9 | 845.9 ± 0.9 | 844.1 ± 0.9 | 842.4 ± 0.9
313.15 K, 25000 kPa | 861.3 ± 0.9 | 859.5 ± 0.9 | 857.7 ± 0.9 | 855.9 ± 0.9 | 854.3 ± 0.9 | 852.5 ± 0.9 | 851 ± 0.9 | 849.2 ± 0.9 | 847.4 ± 0.9 | 845.7 ± 0.9
313.15 K, 30000 kPa | 864.7 ± 0.9 | 862.8 ± 0.9 | 861.1 ± 0.9 | 859.3 ± 0.9 | 857.6 ± 0.9 | 855.7 ± 0.9 | 854.2 ± 0.9 | 852.4 ± 0.9 | 850.5 ± 0.9 | 848.8 ± 0.9
313.15 K, 35000 kPa | 867.9 ± 0.9 | 866.2 ± 0.9 | 864.5 ± 0.9 | 862.6 ± 0.9 | 860.9 ± 0.9 | 858.9 ± 0.9 | 857.4 ± 0.9 | 855.6 ± 0.9 | 853.8 ± 0.9 | 852 ± 0.9
313.15 K, 40000 kPa | 871.3 ± 1 | 869.5 ± 1 | 867.8 ± 1 | 866 ± 1 | 864.2 ± 1 | 862.2 ± 1 | 860.6 ± 1 | 858.8 ± 1 | 856.9 ± 1 | 855.1 ± 1
328.15 K, 20000 kPa | 846.7 ± 0.9 | 845.1 ± 0.9 | 843.4 ± 0.9 | 841.8 ± 0.9 | 840.2 ± 0.9 | 838.4 ± 0.9 | 837 ± 0.9 | 835.3 ± 0.9 | 833.5 ± 0.9 | 832 ± 0.9
328.15 K, 25000 kPa | 850.4 ± 0.9 | 848.7 ± 0.9 | 847 ± 0.9 | 845.2 ± 0.9 | 843.6 ± 0.9 | 841.9 ± 0.9 | 840.4 ± 0.9 | 838.6 ± 0.9 | 836.9 ± 0.9 | 835.4 ± 0.9
328.15 K, 30000 kPa | 854 ± 0.9 | 852.3 ± 0.9 | 850.6 ± 0.9 | 848.8 ± 0.9 | 847.2 ± 0.9 | 845.4 ± 0.9 | 843.9 ± 0.9 | 842.1 ± 0.9 | 840.4 ± 0.9 | 838.7 ± 0.9
328.15 K, 35000 kPa | 857.5 ± 0.9 | 855.8 ± 0.9 | 854 ± 0.9 | 852.3 ± 0.9 | 850.6 ± 0.9 | 848.8 ± 0.9 | 847.3 ± 0.9 | 845.5 ± 1 | 843.7 ± 1 | 841.9 ± 1
328.15 K, 40000 kPa | 861.1 ± 1 | 859.4 ± 1 | 857.5 ± 1 | 855.8 ± 1 | 854.1 ± 1 | 852.1 ± 1 | 850.6 ± 1 | 848.8 ± 1 | 847.1 ± 1 | 845.3 ± 1
343.15 K, 20000 kPa | 835.9 ± 0.9 | 834.4 ± 0.9 | 832.8 ± 0.9 | 831.2 ± 0.9 | 829.6 ± 0.9 | 827.9 ± 0.9 | 826.5 ± 0.9 | 824.8 ± 0.9 | 823.1 ± 0.9 | 821.6 ± 0.9
343.15 K, 25000 kPa | 839.7 ± 0.9 | 838.1 ± 0.9 | 836.5 ± 0.9 | 834.9 ± 0.9 | 833.4 ± 0.9 | 831.7 ± 0.9 | 830.2 ± 0.9 | 828.4 ± 0.9 | 826.8 ± 0.9 | 825.2 ± 0.9
343.15 K, 30000 kPa | 843.8 ± 0.9 | 842.1 ± 0.9 | 840.4 ± 0.9 | 838.8 ± 0.9 | 837.1 ± 0.9 | 835.4 ± 0.9 | 834 ± 0.9 | 832.1 ± 0.9 | 830.4 ± 0.9 | 828.8 ± 0.9
343.15 K, 35000 kPa | 847.7 ± 1 | 846 ± 1 | 844.2 ± 1 | 842.5 ± 1 | 840.9 ± 1 | 839.1 ± 1 | 837.6 ± 1 | 835.9 ± 1 | 834.1 ± 1 | 832.2 ± 1
343.15 K, 40000 kPa | 851.4 ± 1 | 849.6 ± 1 | 847.9 ± 1 | 846.2 ± 1 | 844.5 ± 1 | 842.7 ± 1 | 841.2 ± 1 | 839.5 ± 1 | 837.3 ± 1 | 835.5 ± 1
358.15 K, 20000 kPa | 825 ± 0.9 | 823.5 ± 0.9 | 822.1 ± 0.9 | 820.7 ± 0.9 | 819.3 ± 0.9 | 817.9 ± 0.9 | 816.5 ± 0.9 | 815.1 ± 0.9 | 813.3 ± 0.9 | 811.5 ± 0.9
358.15 K, 25000 kPa | 829.2 ± 0.9 | 827.7 ± 0.9 | 826 ± 0.9 | 824.6 ± 0.9 | 823.1 ± 0.9 | 821.6 ± 0.9 | 820.2 ± 0.9 | 818.7 ± 0.9 | 816.9 ± 0.9 | 815.3 ± 0.9
358.15 K, 30000 kPa | 833.3 ± 0.9 | 831.6 ± 0.9 | 830 ± 0.9 | 828.4 ± 0.9 | 826.9 ± 0.9 | 825.3 ± 0.9 | 823.9 ± 0.9 | 822.2 ± 0.9 | 820.6 ± 0.9 | 818.7 ± 0.9
358.15 K, 35000 kPa | 837.4 ± 1 | 835.7 ± 1 | 834 ± 1 | 832.2 ± 1 | 830.7 ± 1 | 829 ± 1 | 827.5 ± 1 | 825.8 ± 1 | 824 ± 1 | 822.4 ± 1
358.15 K, 40000 kPa | 841.5 ± 1 | 839.7 ± 1 | 838 ± 1 | 836.2 ± 1 | 834.6 ± 1 | 832.8 ± 1 | 831.2 ± 1 | 829.4 ± 1 | 827.6 ± 1 | 825.9 ± 1
